Experimental data reported in patent publication US11739098B2 (BRISTOL-MYERS SQUIBB COMPANY, priority 2017, dated 2023).

What was measured:
Type in all cases: cell-based
[1] = molecular target: T1, human TLR7 (Homo sapiens, UniProt Q9NYK1); assay: TLR7 inhibition reporter assay (HEK-Blue cells, SEAP reporter, gardiquimod stimulation); conditions: HEK-Blue cells overexpressing human TLR7, SEAP reporter, gardiquimod 7.5 μM
T1 construct: host or cells: HEK-Blue cells (HEK293-derived reporter line)
T1 sequence (Q9NYK1 27-1049): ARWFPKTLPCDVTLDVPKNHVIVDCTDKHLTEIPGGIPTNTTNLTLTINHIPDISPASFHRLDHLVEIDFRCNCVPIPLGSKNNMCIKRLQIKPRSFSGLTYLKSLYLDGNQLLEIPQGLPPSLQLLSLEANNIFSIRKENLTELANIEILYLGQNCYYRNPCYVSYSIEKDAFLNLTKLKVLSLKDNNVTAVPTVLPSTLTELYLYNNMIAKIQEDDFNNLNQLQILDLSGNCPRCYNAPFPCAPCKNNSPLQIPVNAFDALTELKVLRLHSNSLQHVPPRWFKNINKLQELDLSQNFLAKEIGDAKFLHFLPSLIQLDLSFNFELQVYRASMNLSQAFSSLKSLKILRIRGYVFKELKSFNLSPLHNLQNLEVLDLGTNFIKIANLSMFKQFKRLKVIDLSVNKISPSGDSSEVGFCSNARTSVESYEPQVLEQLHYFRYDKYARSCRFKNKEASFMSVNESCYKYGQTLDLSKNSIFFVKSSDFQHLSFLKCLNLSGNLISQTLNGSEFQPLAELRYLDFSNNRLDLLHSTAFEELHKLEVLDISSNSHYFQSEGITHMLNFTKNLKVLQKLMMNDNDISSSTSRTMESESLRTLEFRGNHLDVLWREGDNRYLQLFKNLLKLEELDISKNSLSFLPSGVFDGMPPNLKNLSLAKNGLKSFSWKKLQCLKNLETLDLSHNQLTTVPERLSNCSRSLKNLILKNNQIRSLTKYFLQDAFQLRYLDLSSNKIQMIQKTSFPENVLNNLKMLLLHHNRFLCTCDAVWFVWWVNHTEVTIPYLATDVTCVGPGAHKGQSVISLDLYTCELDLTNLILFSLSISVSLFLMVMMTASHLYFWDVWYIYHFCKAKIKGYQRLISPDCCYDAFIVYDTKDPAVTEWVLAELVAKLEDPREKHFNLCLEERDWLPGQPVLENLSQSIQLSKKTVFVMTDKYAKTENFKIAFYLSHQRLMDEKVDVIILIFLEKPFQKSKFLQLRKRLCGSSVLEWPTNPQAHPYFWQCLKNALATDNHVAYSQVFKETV
How it was run: (§1)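 HEK-Blue cells overexpressing the receptor, with NF-κB/AP-1-driven SEAP, were pre-treated 30 min at room temperature with compound (0.05 nM–50 μM), then stimulated with gardiquimod 7.5 μM (TLR7), R848 15.9 μM (TLR8) or ODN2006 5 nM (TLR9). SEAP was read after 22 h at 37 °C as percent inhibition.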

[2] = molecular target: T2, human TLR8 (Homo sapiens, UniProt Q9NR97); assay: TLR8 inhibition reporter assay (HEK-Blue cells, SEAP reporter, R848 stimulation); conditions: HEK-Blue cells overexpressing human TLR8, SEAP reporter, R848 15.9 μM
T2 construct: host or cells: HEK-Blue cells (HEK293-derived reporter line)
T2 sequence (Q9NR97 27-1041): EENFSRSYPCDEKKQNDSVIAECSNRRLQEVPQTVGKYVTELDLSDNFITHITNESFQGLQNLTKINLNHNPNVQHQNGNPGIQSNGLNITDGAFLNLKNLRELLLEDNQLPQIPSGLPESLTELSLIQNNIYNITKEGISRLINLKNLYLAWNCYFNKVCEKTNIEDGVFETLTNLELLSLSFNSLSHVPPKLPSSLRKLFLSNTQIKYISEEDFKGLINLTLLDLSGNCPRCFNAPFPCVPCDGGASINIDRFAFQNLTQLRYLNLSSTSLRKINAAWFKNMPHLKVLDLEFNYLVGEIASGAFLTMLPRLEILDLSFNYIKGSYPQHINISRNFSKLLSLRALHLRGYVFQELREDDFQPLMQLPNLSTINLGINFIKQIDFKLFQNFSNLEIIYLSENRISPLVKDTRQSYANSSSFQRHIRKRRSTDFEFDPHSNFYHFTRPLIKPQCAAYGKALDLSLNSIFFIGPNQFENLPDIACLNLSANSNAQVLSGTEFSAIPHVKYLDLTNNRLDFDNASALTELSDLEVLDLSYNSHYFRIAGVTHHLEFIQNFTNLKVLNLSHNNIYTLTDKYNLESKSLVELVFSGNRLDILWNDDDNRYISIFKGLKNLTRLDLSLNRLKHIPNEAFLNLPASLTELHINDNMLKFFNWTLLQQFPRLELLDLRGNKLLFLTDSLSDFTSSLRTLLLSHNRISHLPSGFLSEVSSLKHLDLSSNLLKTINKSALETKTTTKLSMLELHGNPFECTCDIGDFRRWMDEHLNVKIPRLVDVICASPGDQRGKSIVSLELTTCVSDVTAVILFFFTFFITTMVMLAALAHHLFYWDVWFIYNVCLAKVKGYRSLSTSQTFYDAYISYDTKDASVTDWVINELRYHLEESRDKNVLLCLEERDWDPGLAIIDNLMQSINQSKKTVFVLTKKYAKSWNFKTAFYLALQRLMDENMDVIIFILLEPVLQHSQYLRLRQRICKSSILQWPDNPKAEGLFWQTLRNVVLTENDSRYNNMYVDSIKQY
How it was run: as §1

[3] = molecular target: T3, human TLR9 (Homo sapiens, UniProt Q9NR96); assay: TLR9 inhibition reporter assay (HEK-Blue cells, SEAP reporter, ODN2006 stimulation); conditions: HEK-Blue cells overexpressing human TLR9, SEAP reporter, ODN2006 5 nM
T3 construct: host or cells: HEK-Blue cells (HEK293-derived reporter line)
T3 sequence (Q9NR96 26-1032): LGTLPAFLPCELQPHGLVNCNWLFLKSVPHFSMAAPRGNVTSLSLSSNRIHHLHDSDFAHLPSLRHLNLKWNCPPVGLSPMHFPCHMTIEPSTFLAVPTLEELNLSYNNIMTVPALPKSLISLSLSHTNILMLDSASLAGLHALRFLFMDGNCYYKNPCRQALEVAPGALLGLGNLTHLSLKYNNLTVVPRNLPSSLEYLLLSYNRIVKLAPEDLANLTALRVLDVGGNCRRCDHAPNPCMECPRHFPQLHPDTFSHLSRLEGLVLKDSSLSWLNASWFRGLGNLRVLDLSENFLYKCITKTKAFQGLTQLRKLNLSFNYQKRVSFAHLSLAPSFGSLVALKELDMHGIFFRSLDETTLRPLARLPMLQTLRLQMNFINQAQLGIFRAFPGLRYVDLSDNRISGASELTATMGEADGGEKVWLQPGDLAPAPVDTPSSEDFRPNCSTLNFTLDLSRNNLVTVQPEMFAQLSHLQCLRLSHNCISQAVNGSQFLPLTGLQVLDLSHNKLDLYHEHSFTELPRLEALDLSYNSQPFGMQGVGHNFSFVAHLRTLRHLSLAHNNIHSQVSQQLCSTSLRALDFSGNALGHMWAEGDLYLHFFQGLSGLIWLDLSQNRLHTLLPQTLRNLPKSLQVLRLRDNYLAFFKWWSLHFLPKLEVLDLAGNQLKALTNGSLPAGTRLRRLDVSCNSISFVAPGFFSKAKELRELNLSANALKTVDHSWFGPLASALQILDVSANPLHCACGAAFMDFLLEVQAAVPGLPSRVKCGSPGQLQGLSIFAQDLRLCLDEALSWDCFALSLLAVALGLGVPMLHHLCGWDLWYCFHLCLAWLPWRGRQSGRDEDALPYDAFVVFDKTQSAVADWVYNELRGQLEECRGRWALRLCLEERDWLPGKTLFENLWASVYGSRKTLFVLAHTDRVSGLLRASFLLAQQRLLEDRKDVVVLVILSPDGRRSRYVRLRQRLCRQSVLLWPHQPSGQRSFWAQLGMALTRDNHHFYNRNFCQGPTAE
How it was run: as §1

| IC50 [1] | IC50 [2] | IC50 [3] | Compound |
| --- | --- | --- | --- |
| < 100 nM | < 100 nM | 100 to 1000 nM | CCN(CC)CCN1CCC(c2ccc3[nH]c(-c4ccnc5[nH]ncc45)c(C(C)C)c3c2)CC1 [Example 661, N,N-diethyl-2-(4-(3-isopropyl-2-(1H-pyrazolo[3,4-b]pyridin-4-yl)-1H-indol-5-yl)piperidin-1-yl)ethan-1-amine] |
| < 100 nM | < 100 nM | 1000 to 50000 nM | Cc1cc(-c2[nH]c3ccc(C4CCNCC4)cc3c2C(C)C)c2[nH]ncc2n1 [Example 49, 7-(3-isopropyl-5-(piperidin-4-yl)-1H-indol-2-yl)-5-methyl-1H-pyrazolo[4,3-b]pyridine] |
| 100 to 1000 nM | < 100 nM | 1000 to 50000 nM | CCCCc1nc(Cl)c(CN2CCC(c3ccc4[nH]c(-c5ccnc6[nH]ncc56)c(C(C)C)c4c3)CC2)[nH]1 [Example 896, 4-(5-(1-((2-butyl-4-chloro-1H-imidazol-5-yl)methyl)piperidin-4-yl)-3-isopropyl-1H-indol-2-yl)-1H-pyrazolo[3,4-b]pyridine] |
| < 100 nM | 100 to 1000 nM | 1000 to 50000 nM | CC(C)c1c(-c2cc(CO)c3nnnn3c2)[nH]c2ccc(C3CCNCC3)cc12 [Example 71, (6-(3-isopropyl-5-(piperidin-4-yl)-1H-indol-2-yl)tetrazolo[1,5-a]pyridin-8-yl)methanol] |
| < 100 nM | < 100 nM | 100 to 1000 nM | CC(C)c1c(-c2ccc3onc(N)c3c2)[nH]c2ccc(C3CCNCC3)cc12 [Example 7, 5-(3-isopropyl-5-(piperidin-4-yl)-1H-indol-2-yl)benzo[d]isoxazol-3-amine] |
| < 100 nM | < 100 nM | 100 to 1000 nM | CCN(CC)C(=O)C1CCCN(CC(=O)N2CCC(c3ccc4[nH]c(-c5ccnc6[nH]ncc56)c(C(C)C)c4c3)CC2)C1 (stereo not drawn) [Example 588, N,N-diethyl-1-(2-(4-(3-isopropyl-2-(1H-pyrazolo[3,4-b]pyridin-4-yl)-1H-indol-5-yl)piperidin-1-yl)-2-oxoethyl)piperidine-3-carboxamide] |
| < 100 nM | < 100 nM | 100 to 1000 nM | CC(C)c1c(-c2ccnc3[nH]ncc23)[nH]c2ccc(C3CCN(Cc4cn(C)cn4)CC3)cc12 [Example 906, 4-(3-isopropyl-5-(1-((1-methyl-1H-imidazol-4-yl)methyl)piperidin-4-yl)-1H-indol-2-yl)-1H-pyrazolo[3,4-b]pyridine] |
| 100 to 1000 nM | 100 to 1000 nM | 100 to 1000 nM | CCc1c(-c2ccc3nncn3n2)[nH]c2ccc(C3CCNCC3)cc12 [Example 184, 6-(3-ethyl-5-(piperidin-4-yl)-1H-indol-2-yl)-[1,2,4] triazolo[4,3-b]pyridazine] |
| < 100 nM | < 100 nM | 1000 to 50000 nM | CNC(=O)CN1CCC(c2ccc3[nH]c(-c4cn5ccnc5c(Cl)c4C)c(C(C)C)c3c2)CC1 [Example 414, 2-(4-(2-(8-chloro-7-methylimidazo[1,2-a]pyridin-6-yl)-3-isopropyl-1H-indol-5-yl)piperidin-1-yl)-N-methylacetamide] |
| < 100 nM | < 100 nM | 100 to 1000 nM | Cc1nc[nH]c1CN1CCC(c2ccc3[nH]c(-c4ccnc5[nH]ncc45)c(C(C)C)c3c2)CC1 [Example 864, 4-(3-isopropyl-5-(1-((4-methyl-1H-imidazol-5-yl)methyl)piperidin-4-yl)-1H-indol-2-yl)-1H-pyrazolo[3,4-b]pyridine] |
| 1000 to 50000 nM | 1000 to 50000 nM | 1000 to 50000 nM | CC(C)c1c(-c2ccc3nc(N)cn3n2)[nH]c2ccc(C3CCNCC3)cc12 [Example 24, 6-(3-isopropyl-5-(piperidin-4-yl)-1H-indol-2-yl)imidazo[1,2-b]pyridazin-2-amine] |
| < 100 nM | < 100 nM | 100 to 1000 nM | Cc1cc2cc(-c3[nH]c4ccc(C5CCN(C(=O)CN(C)C)CC5)cc4c3C(C)C)cc(C)n2n1 [Example 552, 2-(dimethylamino)-1-(4-(2-(2,7-dimethylpyrazolo[1,5-a]pyridin-5-yl)-3-isopropyl-1H-indol-5-yl)piperidin-1-yl)ethan-1-one] |
| 1000 to 50000 nM | 100 to 1000 nM | 100 to 1000 nM | COCC(CO)N1CCC(c2ccc3[nH]c(-c4cc(C)n5ccnc5c4)c(C(C)C)c3c2)CC1 (stereo not drawn) [Example 754, 2-(4-(3-isopropyl-2-(5-methylimidazo[1,2-a]pyridin-7-yl)-1H-indol-5-yl)piperidin-1-yl)-3-methoxypropan-1-ol] |
| < 100 nM | < 100 nM | 100 to 1000 nM | CC(C)c1c(-c2cnc3ncccn23)[nH]c2ccc(C3CCNCC3)cc12 [Example 64, 3-(3-isopropyl-5-(piperidin-4-yl)-1H-indol-2-yl)imidazo[1,2-a]pyrimidine] |
